Molecules are shown by their SMILES.

The series is described as follows: Human HepG2 cell viability assay in 384 well format. The series is classed as toxicity, cell-based. Set-up: dose 125 nL, time 70.5 hour; cytotoxicity at 70.5 h: concentration not given beside the values. Conditions: HepG2 cells, read-out: Inhibition.
For `Cc1ccc(C(O)CNCc2c(C(C)C)nn(C)c2N(C)C)cc1` (centres undefined), the cytotoxicity at 70.5 h was determined as 0.581%.

`c1ccc(CN2CCc3ncnc(-c4ccncc4)c3CC2)nc1`: the cytotoxicity at 70.5 h came to 22.4%.

`CN(Cc1cscn1)C(=O)C(c1ccccc1)N1CCSCC1` (centres undefined): the cytotoxicity at 70.5 h turned out to be 21.5%.

For the compound `CCOc1ncccc1CNC(=O)Nc1ccc(N(C)C)nc1`, the cytotoxicity at 70.5 h stood at 17.3%.

On to `OCc1ccc(CNc2ccccc2CN2CCC(O)CC2)o1`, for which the cytotoxicity at 70.5 h is -4.84%.

For `CCc1ccc(CN2CCCC(c3nn(C)c(=O)n3CC)C2)nc1` (centres undefined), the cytotoxicity at 70.5 h is -9.19%.

`Cn1ccnc1CN1CCc2c(COCC3CC3)nn(C)c2C1`: the cytotoxicity at 70.5 h is -6.3%.

For the compound `Cc1ccc(C(=O)NC2CCN(Cc3noc(C(C)C)n3)CC2)s1`, the cytotoxicity at 70.5 h is -8.2%.

For `Cc1cc(C)n(C2CCCN(C(=O)C3=NN(C)C(=O)CC3)C2)n1` (centres undefined), the cytotoxicity at 70.5 h was -9.81%.

With `CC(C)(C)OC(=O)NC(C)(C)c1noc(CSc2nncs2)n1`, the cytotoxicity at 70.5 h was 25.7%.

With `CN(C)C(=O)c1nc(-c2ccc(S(C)(=O)=O)cc2)c2ccccn12`, the cytotoxicity at 70.5 h was -12.8%.

On to `Cc1nc(CNC(=O)NCC(O)c2ccc(F)cc2)cs1` (centres undefined), for which the cytotoxicity at 70.5 h is -3.15%.

With `CCn1ncc2c1C(COCC1CC1)N(Cc1ccccn1)CC2` (centres undefined), the cytotoxicity at 70.5 h is -1.07%.

For the compound `Cc1csc(Nc2cc(C3CN(c4ccncn4)C3)nc(C)n2)n1`, the cytotoxicity at 70.5 h is -8.67%.

Take `CCOC(=O)C1CCN(c2cc(C(=O)N3CCOCC3)nc(C)n2)CC1`: the cytotoxicity at 70.5 h was determined as 0.918%.

As to `CCC(C)CN1CCC(n2cc(C3CCCC3)nn2)CC1` (centres undefined), the cytotoxicity at 70.5 h stood at 0.72%.

Take `COc1cc(C2(C(=O)NC3CCN(C4CC4)CC3)CC2)ccc1C`: the cytotoxicity at 70.5 h was -4.2%.

For `CCc1nc(C2CCCN2C(=O)CCCn2cccn2)no1` (centres undefined), the cytotoxicity at 70.5 h is -7.2%.

As to `Cc1cc2nccc(C3CCCN(C(=O)c4cnccn4)C3)n2n1` (centres undefined), the cytotoxicity at 70.5 h was 0.174%.

Consider `COc1ccc(C)cc1CN1CCOC(Cn2nc(C)nc2C)C1` (centres undefined), for which the cytotoxicity at 70.5 h was -19.6%.

Take `O=C1COC2(CCN(CC3CC3)CC2)CN1c1ccsc1`: the cytotoxicity at 70.5 h was -8.69%.

As to `Cc1nc(C2CCCCN2S(C)(=O)=O)no1` (centres undefined), the cytotoxicity at 70.5 h is -13.4%.

As for `COCCOC1CCN(C(C(=O)O)c2ccc3c(c2)OCO3)CC1` (centres undefined), the cytotoxicity at 70.5 h is -6.06%.

Regarding `CC(C)CC(=O)N1CCC(Nc2nc(O)cc(-c3ccsc3)n2)CC1`, the cytotoxicity at 70.5 h is 11.2%.

As for `Cc1ccc(S(=O)(=O)N2C[C@H]3C[C@H](NC(=O)c4ccnn4C)[C@H]3C2)cc1`, the cytotoxicity at 70.5 h was 46.1%.

`O=C(c1ccnnc1)N1CCN2C[C@H](Oc3cccnc3)C[C@H]2C1`: the cytotoxicity at 70.5 h was -0.791%.

On to `CCCn1c(N2CCCC(C)C2)nc2c(C)nn(C)c2c1=O` (centres undefined), for which the cytotoxicity at 70.5 h is -14.3%.

For the compound `Cc1nccn1CCCC(=O)N1CCC(N(C)c2cccnn2)CC1`, the cytotoxicity at 70.5 h is -7.52%.

In the case of `O=C(Cc1ccc2c(c1)CCCC2)Nc1cccnc1N1CCSCC1`, the cytotoxicity at 70.5 h was -7.86%.

Take `CC(C)(CNC(=O)Nc1ccc(S(=O)(=O)C(F)F)cc1)N1CCOCC1`: the cytotoxicity at 70.5 h is -7.87%.

On to `Cc1ccc(C)c(Oc2ccc(CNC(=O)C3CCS(=O)(=O)C3)cn2)c1` (centres undefined), for which the cytotoxicity at 70.5 h was -10.1%.

`COCC1CN(Cc2ccc(F)cc2)Cc2nnn(CC3CC3)c21` (centres undefined): the cytotoxicity at 70.5 h amounted to 0.526%.

Regarding `N#CCSCCCN1CCCN(C(=O)c2ccccc2)CC1`, the cytotoxicity at 70.5 h is -8.59%.

In the case of `CCCn1cnnc1CNC1CCCC1`, the cytotoxicity at 70.5 h is 5.01%.

As for `CC(C)NC(=O)c1nnn(-c2ccccc2)c1C1CC1`, the cytotoxicity at 70.5 h is -6.4%.

For the compound `CCN(CC)C(=O)Cn1ccc2cc(NC(=O)COC)ccc21`, the cytotoxicity at 70.5 h is -2.77%.

Turning to `CCOC(=O)CSc1nnc([C@@H](N)CC(C)C)o1`, the cytotoxicity at 70.5 h was -6.75%.

For the compound `CC(=O)N[C@@H]1CN(C(=O)CC2CC2)C[C@H]1O`, the cytotoxicity at 70.5 h is -4.46%.

On to `O=C(c1cnccn1)N1CCC2(CCCN(Cc3ccoc3)C2)C1` (centres undefined), for which the cytotoxicity at 70.5 h was 11.3%.

With `Cc1c[nH]c(CN(C)C(=O)C2CC(=O)N(Cc3ccncc3)C2)n1` (centres undefined), the cytotoxicity at 70.5 h was determined as 11.9%.

In the case of `Nc1nc(NCCO)cc(N2CCc3c([nH]c4ccccc34)C2)n1`, the cytotoxicity at 70.5 h is -7.97%.

As for `NC(=O)Cn1ccnc1C1CCCN(CCSc2ccccc2)C1` (centres undefined), the cytotoxicity at 70.5 h is -12.6%.

Regarding `CC(C)c1nc(CN(C)C2CCN(CCc3ccncc3)C2)no1` (centres undefined), the cytotoxicity at 70.5 h was -2.44%.

With `CO[C@H]1COCCN(Cc2c[nH]c3ccccc23)C1`, the cytotoxicity at 70.5 h was -4%.

For `CC1CCN(c2ncc3c(n2)CN(c2ccc(F)cc2)C3=O)CC1`, the cytotoxicity at 70.5 h was -2.02%.

As for `CN(C)c1cc(C(=O)NCC2(c3ccc(F)cc3)CC2)ccn1`, the cytotoxicity at 70.5 h was -1.65%.

Turning to `O=C(NCCNc1ncccn1)N1CCN(c2nccs2)CC1`, the cytotoxicity at 70.5 h was -2.7%.

On to `COCCN1CCC(CN(CC2CCCO2)C(=O)CNC(C)=O)CC1` (centres undefined), for which the cytotoxicity at 70.5 h is -1.99%.

Turning to `COc1cc(-n2cccc2)c(Cl)cc1C(=O)NS(C)(=O)=O`, the cytotoxicity at 70.5 h turned out to be 6%.

`COc1ccc(C(C)NCc2nnc(C)s2)cc1F` (centres undefined): the cytotoxicity at 70.5 h is -2.29%.

Consider `COCc1noc(Cn2ncn3cccc3c2=O)n1`, for which the cytotoxicity at 70.5 h stood at 6.69%.

Take `CCc1c(C)nn(CCNC(=O)c2cnn[nH]2)c1C`: the cytotoxicity at 70.5 h was -5.63%.

Consider `O=C(Nc1cccnc1)NC1(c2cccc(F)c2)CC1`, for which the cytotoxicity at 70.5 h was -14.7%.

Take `COCCNC(=O)[C@H]1C[C@@H]2CCN(c3ncccn3)C[C@@H]2O1`: the cytotoxicity at 70.5 h is -4.51%.

Regarding `CCc1ccc(CN(CCCn2ccnc2)Cc2ccc(C)s2)o1`, the cytotoxicity at 70.5 h stood at 21.1%.

Take `Cc1cc(N2CCN(C(=O)c3cnn(C(C)C)c3)CC2)nc(N)n1`: the cytotoxicity at 70.5 h is -4.23%.

For the compound `CCn1c(C)nnc1CN(C)C1CCN(CCOc2ccccc2)C1` (centres undefined), the cytotoxicity at 70.5 h came to 29.3%.

For the compound `CCOc1ccc(S(=O)(=O)NC(=O)CC2CCCO2)cc1` (centres undefined), the cytotoxicity at 70.5 h is 17.8%.

In the case of `CC(C)c1cc(C(=O)N2CCCC3(CCNC3)C2)no1` (centres undefined), the cytotoxicity at 70.5 h is -3.49%.

`CNC(=O)CN1CCC(CN(C)CCSc2ccccc2)CC1`: the cytotoxicity at 70.5 h is -0.471%.

Consider `CCOCC1CN(Cc2cnn(C)c2)Cc2nn(C)cc21` (centres undefined), for which the cytotoxicity at 70.5 h was determined as 2.42%.

On to `CC(OCC1CC1)C(=O)Nc1ccn(Cc2ccccc2)n1` (centres undefined), for which the cytotoxicity at 70.5 h is -7.82%.

`CN(C)CCN1CCCC12CCN(C(=O)c1ccncc1)CC2`: the cytotoxicity at 70.5 h is -7.81%.

As for `O=C(c1cccnc1)N1CCc2[nH]nc(Nc3ccccc3)c2C1`, the cytotoxicity at 70.5 h was -6.1%.

For `Cc1nc(CCNC(=O)NC(C)Cn2cccn2)cs1` (centres undefined), the cytotoxicity at 70.5 h was -12.8%.

In the case of `CNC(=O)CCc1cc(C2CCNCC2)nc(C)n1`, the cytotoxicity at 70.5 h is -5.9%.

Regarding `COc1ccc(Oc2cncc(C3CCCN3C(C)=O)n2)cc1` (centres undefined), the cytotoxicity at 70.5 h was determined as 31.7%.

`CNC(=O)C(C)(C)N(C)C(=O)c1cc(COc2ccccc2OC)[nH]n1`: the cytotoxicity at 70.5 h was -5.11%.

Regarding `Cc1cc(CNc2ccccc2Cl)no1`, the cytotoxicity at 70.5 h is -13.4%.

In the case of `Cn1ccc(C(=O)NC2CCC23CCN(C(=O)C2CCOCC2)CC3)c1` (centres undefined), the cytotoxicity at 70.5 h was -4.15%.

`CN(C)c1cc(C(F)(F)F)nc(N2CCCC2c2ccccn2)n1` (centres undefined): the cytotoxicity at 70.5 h is -5.01%.

For the compound `CN(Cc1nnc(C2CC2)n1C)C1CCN(Cc2ccccc2)C1` (centres undefined), the cytotoxicity at 70.5 h was determined as 17.5%.

As to `CCc1nnc(CN(C)Cc2nc(-c3ccccc3Cl)oc2C)o1`, the cytotoxicity at 70.5 h was -3.53%.

With `CCc1cc(=O)n(CC(=O)N2CCCCC2)c(-c2cccc(F)c2)n1`, the cytotoxicity at 70.5 h was -9.52%.

For `CC(=O)Nc1cccc2c1ccn2CC(=O)Nc1n[nH]c(CC(C)C)n1`, the cytotoxicity at 70.5 h is -5.98%.

Regarding `CN(C(=O)c1cc(Cl)c[nH]1)C1CCN(c2ccccn2)CC1`, the cytotoxicity at 70.5 h was found to be 8.18%.

Regarding `O=C(NCCOc1ccccc1)c1ccc2c(c1)C(=O)NC2=O`, the cytotoxicity at 70.5 h turned out to be 3.38%.

Turning to `COc1ccccc1OC1CCN(C(=O)c2cccc(O)c2C)CC1`, the cytotoxicity at 70.5 h is -4.78%.

Regarding `CN1CCN(Cc2ccncc2)Cc2cccnc21`, the cytotoxicity at 70.5 h was -9.78%.

For the compound `COCCC1(C(=O)O)CCCN(CCOCc2ccccc2)C1` (centres undefined), the cytotoxicity at 70.5 h is -3.38%.

For the compound `CCSC(C)C(=O)N1CCC(c2nn(C)c(=O)n2-c2ccccc2)CC1` (centres undefined), the cytotoxicity at 70.5 h was -7.97%.

Consider `CNC(=O)[C@@H]1CN(C(=O)C2CCC2)C[C@H]1c1ccnc(N2CCCC2)n1`, for which the cytotoxicity at 70.5 h is -0.284%.

For `COC(=O)CN(Cc1ccccc1C)C(=O)CCCNC(=O)C1CC1`, the cytotoxicity at 70.5 h turned out to be 10.1%.

`c1cc(CN2CCOCC3(CCNCC3)C2)ccn1`: the cytotoxicity at 70.5 h is 23%.

Take `Cc1ccc(NC2CCN(C(=O)Cc3ccc(C#N)cc3)CC2)nn1`: the cytotoxicity at 70.5 h is -1.55%.

For `OC(CNCCn1cccn1)c1ccc2c(c1)OCCO2` (centres undefined), the cytotoxicity at 70.5 h was -2.85%.

As to `C[S+]([O-])c1ccc(CNc2ccc(F)cc2OC(F)F)cc1` (centres undefined), the cytotoxicity at 70.5 h was -0.988%.

Regarding `Cc1nnc(NCc2ccc(Br)cc2)o1`, the cytotoxicity at 70.5 h is -4.41%.

Take `Cc1ccccc1C(=O)N1C[C@@H]2C[C@@H](C)O[C@@H]2C1`: the cytotoxicity at 70.5 h is -8.1%.

For the compound `Cn1nc(C2CN(S(C)(=O)=O)C2)c2nccnc21`, the cytotoxicity at 70.5 h stood at 3.57%.

Take `Cc1nc(COC[C@@H]2CC[C@H]3[C@H](CCN3c3ccccn3)O2)cs1`: the cytotoxicity at 70.5 h is -90.1%.

For `CC(=O)Nc1ccc(CN2CCc3[nH]cnc3C2c2ccc(C)o2)cc1` (centres undefined), the cytotoxicity at 70.5 h is -6.39%.

For `COC(=O)N1CCN(Cc2ccccc2C(C)(C)C#N)CC1`, the cytotoxicity at 70.5 h is -5.92%.

Take `Cc1ccc(CN2C[C@@H]3CCCO[C@@H]3[C@H](N(C)Cc3ccco3)C2)s1`: the cytotoxicity at 70.5 h is -11%.

In the case of `COc1ccc2c(c1)c(C(=O)Nc1nnn[nH]1)cn2C(C)C`, the cytotoxicity at 70.5 h was found to be 24.1%.

As to `CCc1cc(C(=O)N2Cc3ccccc3OC3(CCOCC3)C2)on1`, the cytotoxicity at 70.5 h was determined as 8.33%.

Take `O=C(c1ccc(-n2cccn2)nc1)N1CCC(c2ccc(O)cc2)CC1`: the cytotoxicity at 70.5 h is -5.83%.

As to `CS(=O)(=O)CC(=O)N1C[C@@H]2COC[C@]2(c2nnc(C3CC3)o2)C1`, the cytotoxicity at 70.5 h was 4.38%.

Take `CN(Cc1nc(COc2ccccc2)no1)CC1Cc2ccccc2O1` (centres undefined): the cytotoxicity at 70.5 h was -3.44%.

The values are drawn from ChEMBL document CHEMBL3507680, “University of Dundee, Gates Library screen for HepG2 cell viability”.
